In patent publication US20220023221A1, “Oral Unit Dosage Form Of Ivermectin” (CHEMO RESEARCH, S.L., priority 2020, published 2022):

Tests used:
SARS-CoV-2 = test: viral load by real-time (RT) PCR in the nasal mucosa of SARS-CoV-2 positive patients; type: in vivo
Excerpt: The term “viral load” is well known to a person skilled in the art. The term “viral load” is a measure of the severity of an active viral infection, and can be determined by methods known to the person skilled in the art. As an Example, the viral load can be calculated by estimating the live amount of virus in an involved body fluid such as a number of RNA copies per milliliter of blood plasma. For example, the viral load can be determined by a real-time (RT) PCR test.
Ivermectin tablets as produced in Example 1 were administered for seven days in a daily dose of 600 μg/kg once daily to 9 patients (IVM) which have been tested to be positive for SARS-CoV-2, whereas 7 patients (control) which have been tested to be positive for SARS-CoV-2, received placebo tablets during said 7 days period.
The viral load was measured by a real-time (RT) PCR test on treatment days 1, 3, 5 and 7 in the nasal mucosa.

[1] = increasing doses from 150 μg/kg/day to 1600 μg/kg/day, onchoceriasis patients; cited from earlier work
SARS-CoV-2 virus = conditions: cited from earlier work
[2] = oral administration of the approved dose of 200 μg/kg; read-out: maximum plasma concentration (Cmax); cited from earlier work
[3] = oral administration of the ivermectin tablets, 600 μg/kg once daily; patient with 100% viral load reduction

Substance: ivermectin
- reduction in viral load (SARS-CoV-2; Day 7, 600 μg/kg once daily for seven days, 9 patients, nasal mucosa): more than 50%
- reduction of the viral load compared with control (SARS-CoV-2; each timepoint (days 1, 3, 5, 7), 600 μg/kg once daily, nasal mucosa): greater reduction of the viral load at each timepoint
- Decay rate of viral load, single patient (SARS-CoV-2; the patient with 183 ng/ml IVM concentration): 0.54 day⁻¹
- viral load reduction in the nasal mucosa, single patient (SARS-CoV-2; the patient with 183 ng/ml ivermectin concentration in the blood): 100%
- tolerability [1]: well tolerated
- IC50 (SARS-CoV-2 virus; SARS-CoV-2 replication in vitro, read-out: concentration resulting in 50% inhibition (IC50)): 2000 nM
- inhibition of replication of SARS-CoV-2 virus in vitro (SARS-CoV-2 virus; ivermectin at 5 μM): inhibit the replication of SARS-CoV-2 virus in vitro
- Cmax [2]: 50 nM
- ivermectin (IVM) concentration in the blood, single patient [3]: 183 ng/mL
